The text below walks through data of patent publication US20240109893A1, “PREPARATION AND APPLICATION METHOD OF HETEROCYCLIC COMPOUNDS AS KRAS INHIBITOR” (SHANGHAI KECHOW PHARMA, INC., priority 2020, published 2024).

Broadly, the IC50 is the concentration at which inhibition is half-maximal. A lower IC50 goes with greater potency in that assay.

The experiment has as its system H358 cells. Briefly: Cell activity experiment: activity test of H358 cells (MTT, 5 days). The conditions noted are these: Homo sapiens, NCI-H358, 120 h, 5 days incubation, absorbance 492 nm. In kind it is cell-based. An outline of the steps:
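H358 cells seeded 90 μL at 55555 cells/mL, grown 24 h, then exposed to 3-fold serial compound dilutions (final top 10000 nM, 0.5% DMSO) in triplicate for 5 days at 37° C., 5% CO2. Viability by MTT (4 h), formazan dissolved in DMSO, absorbance at 492 nm.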
`C=C(F)C(=O)N1CCN(c2nc(OC[C@@H]3CCCN3C)nc3cc(-c4cncc5c4CCCC5)ccc23)C[C@@H]1CC#N` [Example 143]: it took 80 nM to reach half-maximal inhibition (IC50).
Molecule `C=CC(=O)N1CCN(c2nc(OC[C@@H]3C[C@@H](F)CN3C)nc3cc(-c4cncc5c4CCCC5)ccc23)C[C@@H]1CC#N` [Example 144] had an IC50 of 25 nM.
As to `C=C(F)C(=O)N1CCN(c2nc(OC[C@@H]3C[C@@H](F)CN3C)nc3cc(-c4cncc5c4CCCC5)ccc23)C[C@@H]1CC#N` [Example 145], the IC50 was found to be 102 nM.
Turning to `C=CC(=O)N1CCN(c2nc(OCC34CCCN3CCC4)nc3cc(-c4cncc5c4CCCC5)ccc23)C[C@@H]1CC#N` [Example 146, (S)-2-(1-acryloyl-4-(2-((tetrahydro-1H-pyrrolizin-7a(5H)-yl)methoxy)-7-(5,6,7,8-tetrahydroisoquinolin-4-yl)quinazolin-4-yl)piperazin-2-yl)acetonitrile], the half-maximal inhibitory concentration (IC50) was found to be 10 nM.
Regarding `C=C(F)C(=O)N1CCN(c2nc(OCC34CCCN3CCC4)nc3cc(-c4cncc5c4CCCC5)ccc23)C[C@@H]1CC#N` [Example 147], inhibition was half-maximal at 18 nM (IC50).
`C=CC(=O)N1CCN(c2nc(OCC34CCCN3C[C@H](F)C4)nc3cc(-c4cncc5c4CCCC5)ccc23)C[C@@H]1CC#N` (stereo partly drawn) [Example 148] came in with an IC50 of 5 nM.
The same measure for `C=C(F)C(=O)N1CCN(c2nc(OCC34CCCN3C[C@H](F)C4)nc3cc(-c4cncc5c4CCCC5)ccc23)C[C@@H]1CC#N` (stereo partly drawn) [Example 149]: 10 nM.
The same measure for `C=CC(=O)N1CCN(c2nc(OC[C@@H]3CCCN3C)nc3c(F)c(-c4cncc5cccc(Cl)c45)ccc23)C[C@@H]1CC#N` [Example 158, 2-((S)-1-acryloyl-4-(7-(5-chloroisoquinolin-4-yl)-8-fluoro-2-(((S)-1-methylpyrrolidin-2-yl)methoxy)quinazolin-4-yl)piperazin-2-yl)acetonitrile]: 4 nM; for `C=C(F)C(=O)N1CCN(c2nc(OC[C@@H]3CCCN3C)nc3c(F)c(-c4cncc5cccc(Cl)c45)ccc23)C[C@@H]1CC#N` [Example 159]: 18 nM; for `C=CC(=O)N1CCN(c2nc(OC[C@@H]3C[C@@H](F)CN3C)nc3c(F)c(-c4cncc5cccc(Cl)c45)ccc23)C[C@@H]1CC#N` [Example 160]: 5 nM.
The molecule `C=C(F)C(=O)N1CCN(c2nc(OC[C@@H]3C[C@@H](F)CN3C)nc3c(F)c(-c4cncc5cccc(Cl)c45)ccc23)C[C@@H]1CC#N` [Example 161] gave an IC50 of 20 nM.
As for `C=CC(=O)N1CCN(c2nc(OCC34CCCN3CCC4)nc3c(F)c(-c4cncc5cccc(Cl)c45)ccc23)C[C@@H]1CC#N` [Example 162, (S)-2-(1-acryloyl-4-(7-(5-chloroisoquinolin-4-yl)-8-fluoro-2-((tetrahydro-1H-pyrrolizin-7a(5H)-yl)methoxy)quinazolin-4-yl)piperazin-2-yl)acetonitrile], the IC50 stood at 2 nM.
For `C=C(F)C(=O)N1CCN(c2nc(OCC34CCCN3CCC4)nc3c(F)c(-c4cncc5cccc(Cl)c45)ccc23)C[C@@H]1CC#N` [Example 163, (S)-2-(4-(7-(5-chloroisoquinolin-4-yl)-8-fluoro-2-((tetrahydro-1H-pyrrolizin-7a(5H)-yl)methoxy)quinazolin-4-yl)-1-(2-fluoroacryloyl)piperazin-2-yl)acetonitrile] the value was 5 nM; for `C=CC(=O)N1CCN(c2nc(OCC34CCCN3C[C@H](F)C4)nc3c(F)c(-c4cncc5cccc(Cl)c45)ccc23)C[C@@H]1CC#N` (stereo partly drawn) [Example 164, 2-((2S)-1-acryloyl-4-(7-(5-chloroisoquinolin-4-yl)-8-fluoro-2-((((2R,7aS)-2-fluorotetrahydro-1H-pyrrolizin-7a(5H))-yl)methoxy)quinazolin-4-yl)piperazin-2-yl)acetonitrile], 1.5 nM; for `C=C(F)C(=O)N1CCN(c2nc(OC[C@@]34CCCN3C[C@H](F)C4)nc3c(F)c(-c4cncc5cccc(Cl)c45)ccc23)C[C@@H]1CC#N` [Example 165], 4 nM.
With `C=CC(=O)N1CCN(c2nc(OCC34CCCN3CCC4)nc3nc(-c4cccc5cccc(Cl)c45)ccc23)C[C@@H]1CC#N` [Example 258, (S)-2-(1-acryloyl-4-(7-(8-chloronaphthalen-1-yl)-2-((tetrahydro-1H-pyrrolizin-7a(5H)-yl)methoxy)pyridino[2,3-d]pyrimidin-4-yl)piperazin-2-yl)acetonitrile], half-maximal inhibition (IC50) was put at 15 nM.
With `C=C(F)C(=O)N1CCN(c2nc(OCC34CCCN3CCC4)nc3nc(-c4cccc5cccc(Cl)c45)ccc23)C[C@@H]1CC#N` [Example 259, (S)-2-(4-(7-(8-chloronaphthalen-1-yl)-2-((tetrahydro-1H-pyrrolizin-7a(5H)-yl)methoxy)pyridino[2,3-d]pyrimidin-4-yl)-1-(2-fluoroacryloyl)piperazin-2-yl)acetonitrile], the half-inhibitory concentration (IC50) was 31 nM.
The molecule `C=CC(=O)N1CCN(c2nc(OC[C@@]34CCCN3C[C@H](F)C4)nc3nc(-c4cccc5cccc(Cl)c45)ccc23)C[C@@H]1CC#N` [Example 260] returned a 50% inhibitory concentration (IC50) of 10 nM.
`C=C(F)C(=O)N1CCN(c2nc(OC[C@@]34CCCN3C[C@H](F)C4)nc3nc(-c4cccc5cccc(Cl)c45)ccc23)C[C@@H]1CC#N` [Example 261]: inhibition was half-maximal at 24 nM (IC50).
`C=CC(=O)N1CCN(c2nc(OC[C@@H]3CCCN3C)nc3c(F)c(-c4cccc5ccc(F)c(Cl)c45)ccc23)C[C@@H]1CC#N` [Example 359, 2-((S)-1-acryloyl-4-(7-(8-chloro-7-fluoronaphthalen-1-yl)-8-fluoro-2-(((S)-1-methylpyrrolidin-2-yl)methoxy)quinazolin-4-yl)piperazin-2-yl)acetonitrile] displayed an IC50 of 3 nM.
The molecule `C=CC(=O)N1CCN(c2nc(OC[C@@H]3C[C@@H](F)CN3C)nc3c(F)c(-c4cccc5c4CCCC5)ccc23)C[C@@H]1CC#N` [Example 360] displayed an IC50 of 10 nM.
As for `C=CC(=O)N1CCN(c2nc(OC[C@@H]3C[C@@H](F)CN3C)nc3c(F)c(-c4cccc5cccc(Cl)c45)ccc23)C[C@@H]1CC#N` [Example 361], 5 nM corresponded to half-maximal inhibition (IC50).
In the case of `C=CC(=O)N1CCN(c2nc(OC[C@@H]3C[C@@H](F)CN3C)nc3c(F)c(-c4cccc5ccc(F)c(Cl)c45)ccc23)C[C@@H]1CC#N` [Example 362], it took 4.6 nM to reach half-maximal inhibition (IC50).
`C=CC(=O)N1CCN(c2nc(OCC34CCCN3CCC4)nc3c(F)c(-c4cccc5c4CCCC5)ccc23)C[C@@H]1CC#N` [Example 363, (S)-2-(1-acryloyl-4-(8-fluoro-2-((tetrahydro-1H-pyrrolizin-7a(5H)-yl)methoxy)-7-(5,6,7,8-tetrahydronaphthalene)-1-yl)quinazolin-4-ylpiperazin-2-yl)acetonitrile] returned a concentration for half-maximal inhibition (IC50) of 5 nM.
For `C=CC(=O)N1CCN(c2nc(OCC34CCCN3CCC4)nc3c(F)c(-c4cccc5cccc(Cl)c45)ccc23)C[C@@H]1CC#N` [Example 364, (S)-2-(1-acryloyl-4-(7-(8-chloronaphthalen-1-yl)-8-fluoro-2-((tetrahydro-1H-pyrrolizin-7a(5H)-yl)methoxy)quinazolin-4-yl)piperazin-2-yl)acetonitrile] the value was 2 nM; for `C=CC(=O)N1CCN(c2nc(OCC34CCCN3CCC4)nc3c(F)c(-c4cccc5ccc(F)c(Cl)c45)ccc23)C[C@@H]1CC#N` [Example 365, (S)-2-(1-acryloyl-4-(7-(8-chloro-7-fluoronaphthalen-1-yl)-8-fluoro-2-((tetrahydro-1H-pyrrolizin-7a(5H)-yl)methoxy)quinazolin-4-yl)piperazin-2-yl)acetonitrile], 2 nM; for `C=CC(=O)N1CCN(c2nc(OC[C@@]34CCCN3C[C@H](F)C4)nc3c(F)c(-c4cccc5c4CCCC5)ccc23)C[C@@H]1CC#N` [Example 366], 3 nM.
`C=CC(=O)N1CCN(c2nc(OC[C@@]34CCCN3C[C@H](F)C4)nc3c(F)c(-c4cccc5ccc(F)c(Cl)c45)ccc23)C[C@@H]1CC#N` [Example 368]: the IC50 was 0.11 nM.
Consider `C=CC(=O)N1CCC2[C@H]1CN2c1nc(OC[C@@H]2CCCN2C)nc2c(F)c(-c3cccc4c3CCCC4)ccc12` (stereo partly drawn) [Example 369], for which the IC50 came to 20 nM.
Regarding `C=CC(=O)N1CC[C@H]2[C@H]1CN2c1nc(OC[C@@H]2CCCN2C)nc2c(F)c(-c3cccc4cccc(Cl)c34)ccc12` [Example 370, 1-((1R,5S)-6-(7-(8-chloronaphthalen-1-yl)-8-fluoro-2-(((S)-1-methylpyrrolidin-2-yl)methoxy)quinazolin-4-yl)-2,6-diazabicyclo[3.2.0]hept-2-yl)prop-2-en-1-one], 10 nM corresponded to half-maximal inhibition (IC50).
The same measure for `C=CC(=O)N1CCC2[C@H]1CN2c1nc(OC[C@@H]2CCCN2C)nc2c(F)c(-c3cccc4ccc(F)c(Cl)c34)ccc12` (stereo partly drawn) [Example 371]: 6 nM; for `C=CC(=O)N1CCC2[C@H]1CN2c1nc(OCC23CCCN2CCC3)nc2c(F)c(-c3cccc4c3CCCC4)ccc12` (stereo partly drawn) [Example 372]: 5 nM; for `C=CC(=O)N1CCN(c2nc(OC[C@@H]3CCCN3C)nc3cc(-c4cccc5cccc(Cl)c45)c(F)cc23)C[C@@H]1CC#N` [Example 394, 2-((S)-1-acryloyl-4-(6-fluoro-7-(8-chloronaphthalen-1-yl)-2-(((S)-1-methylpyrrolidin-2-yl)methoxy)quinazolin-4-yl)piperazin-2-yl)acetonitrile]: 158 nM.
Molecule `C=CC(=O)N1CCN(c2nc(OC[C@@H]3CCCN3C)nc3c(F)c(-c4cccc5c4CCCC5)c(F)cc23)C[C@@H]1CC#N` [Example 429] showed an IC50 of 15 nM.
In the case of `C=CC(=O)N1CCN(c2nc(OC[C@@H]3CCCN3C)nc3c(F)c(-c4cccc5cccc(Cl)c45)c(F)cc23)C[C@@H]1CC#N` [Example 430, 2-((S)-1-acryloyl-4-(6,8-difluoro-7-(8-chloronaphthalen-1-yl)-2-(((S)-1-methylpyrrolidin-2-yl)methoxy)quinazolin-4-yl)piperazin-2-yl)acetonitrile], half-maximal inhibition (IC50) was put at 140 nM.
For the molecule `C=CC(=O)N1CCN(c2nc(OC[C@@H]3CCCN3C)nc3c(F)c(-c4cccc5ccc(F)c(Cl)c45)c(F)cc23)C[C@@H]1CC#N` [Example 431], the IC50 was determined as 148 nM.
